Laboratory results from patent publication US20080279907A1, “Antimicrobial medical devices and methods for making and using same” (Ash Access Technology, Inc., priority 2007, published 2008).

Tests used:
[1] = Desorption of parabens from paraben impregnated polycarbonate catheter pieces in 0.24 M sodium citrate pH 6.2 (HPLC); assay type: physicochemical
Method: One inch polycarbonate catheter pieces including a surface area of about 4.64 cm^2 were impregnated with methyl paraben and propyl paraben. A solution of 100% 1,2-propanediol was prepared with 9% methyl paraben and 2% propyl paraben. Pairs of the one inch catheter pieces were placed into three 25 ml flasks including 10 ml of the 1,2-propanediol and paraben solution. The flasks including the catheter pieces were placed on a shaker at 220 rpm and 27° C. for two, four, or nine hour time periods. At the end of each time period, the catheter pieces were removed, rinsed with distilled water, and dried.
Desorption analysis of the paraben impregnated catheter pieces was performed in 0.24 M sodium citrate with a pH of 6.2. The total amount of either methyl paraben or propyl paraben released from the catheter pieces was calculated using HPLC analysis performed with a Waters Alliance 2690 including a 996 Photodiode Array Detector. Each calculation used a solution of HPLC grade H2O, methanol (MeOH), and acetonitrile (CAN) which were pre-filtered through a Millipore 0.45 μm nylon filter before use. Trifluoracetic acid (TFA) was added to H2O and acetonitrile (ACN) to 0.1%. A Waters Symmetry column (C8 3.9×150 mm, 5 μm) was applied with a Waters guard column (Waters, Sentry Guard column, Nova-Pak C18, 60A, 4 μm 3.9×20 mm).
A gradient of 67% H2O/33% ACN was used for 6.5 min, ramped to 45 %/55% from 6.5 to 7.0 min, and kept at 45%/55% until 15.0 min, at 15.0 min the concentration reverted to 67%/33%, and the system was run until 18 min. Injection volume for each sample was 10 μl and samples and column were run at ambient temperature.
Table 2 includes the graphical data represented in FIG. 8 and associated with the desorption of propyl paraben from the paraben impregnated catheter pieces prepared as discussed above. Again, the samples were impregnated only with parabens and desorbed in 10 ml 0.24 M Na-citrate, pH 6.2 over time.

[2] = Perfusion of parabens and methylene blue through polycarbonate membrane in perfusion chamber (HPLC of lower chamber); assay type: physicochemical
Method: An experiment was performed to determine a method for perfusing methylene blue, methyl paraben, and propyl paraben through a polycarbonate membrane with causing only minimal changes to the strength and elasticity of the membrane. In FIG. 12, there is illustrated a perfusion chamber system 50 used during the experiment. System 50 includes an upper chamber 51 and a lower chamber 52 separated by a polycarbonate membrane 53 having a thickness of 0.60 mm. The upper and lower chambers 51, 52 are generally structured to hold 10.5 cm^3 or 10.5 ml of fluid. The upper chamber 51 was connected to a peristaltic pump (not shown) and the lower chamber 52 was filled with distilled water. First and second solutions, respectively including the parabens and the methylene blue, were prepared in accordance with the method set forth in EXAMPLE 6 above. As best seen in Tables 6 and 7 below, the solutions were connected to the pump and passed through the first chamber 51 at a constant rate at 37° C. over various lengths of time.
Table 6 includes data obtained from HPLC analysis comparing the methyl paraben, propyl paraben, and methylene blue concentrations in the lower chamber 52. The parameters for the methyl and propyl paraben and methylene blue treatments are indicated in the left hand columns.

[3] = lower chamber, 20% PG/80% DI H2O (0.9% MP, 0.2% PP) ~9 hrs at 37 C., then MB ~10 days

desorption by the end of the study ([1]; nearly 3 months, FIGS. 8 and 9): negligible desorption | period of significant release ([1]; paraben impregnated catheter pieces, 0.24 M Na-citrate pH 6.2): 10 days | Total MP released (mg)/1″ catheter ([1]; treatment 2 hrs (100% PG, 9% MP, 2% PP), time 1 hour): 0.361 mg/1″ catheter | Total MP released (mg)/1″ catheter ([1]; treatment 2 hrs (100% PG, 9% MP, 2% PP), time 3 hours): 0.577 mg/1″ catheter | Total MP released (mg)/1″ catheter ([1]; treatment 2 hrs (100% PG, 9% MP, 2% PP), time 7 hours): 0.84 mg/1″ catheter | Total MP released (mg)/1″ catheter ([1]; treatment 2 hrs (100% PG, 9% MP, 2% PP), time 24 hours): 1.17 mg/1″ catheter | Total MP released (mg)/1″ catheter ([1]; treatment 2 hrs (100% PG, 9% MP, 2% PP), time 4 days): 1.519 mg/1″ catheter | Total MP released (mg)/1″ catheter ([1]; treatment 2 hrs (100% PG, 9% MP, 2% PP), time 5 days): 1.685 mg/1″ catheter | Total MP released (mg)/1″ catheter ([1]; treatment 2 hrs (100% PG, 9% MP, 2% PP), time 6 days): 1.826 mg/1″ catheter | Total MP released (mg)/1″ catheter ([1]; treatment 2 hrs (100% PG, 9% MP, 2% PP), time 8 days): 2.002 mg/1″ catheter | Total MP released (mg)/1″ catheter ([1]; treatment 2 hrs (100% PG, 9% MP, 2% PP), time 11 days): 2.129 mg/1″ catheter | Total MP released (mg)/1″ catheter ([1]; treatment 2 hrs (100% PG, 9% MP, 2% PP), time 13 days): 2.208 mg/1″ catheter | Total MP released (mg)/1″ catheter ([1]; treatment 2 hrs (100% PG, 9% MP, 2% PP), time 15 days): 2.281 mg/1″ catheter | Total MP released (mg)/1″ catheter ([1]; treatment 2 hrs (100% PG, 9% MP, 2% PP), time 18 days): 2.325 mg/1″ catheter | Total MP released (mg)/1″ catheter ([1]; treatment 2 hrs (100% PG, 9% MP, 2% PP), time 22 days): 2.356 mg/1″ catheter | Total MP released (mg)/1″ catheter ([1]; treatment 2 hrs (100% PG, 9% MP, 2% PP), time 29 days): 2.377 mg/1″ catheter | Total MP released (mg)/1″ catheter ([1]; treatment 2 hrs (100% PG, 9% MP, 2% PP), time 36 days): 2.392 mg/1″ catheter | Total MP released (mg)/1″ catheter ([1]; treatment 2 hrs (100% PG, 9% MP, 2% PP), time 50 days): 2.402 mg/1″ catheter | Total MP released (mg)/1″ catheter ([1]; treatment 2 hrs (100% PG, 9% MP, 2% PP), time 67 days): 2.409 mg/1″ catheter | Total MP released (mg)/1″ catheter ([1]; treatment 2 hrs (100% PG, 9% MP, 2% PP), time 81 days): 2.413 mg/1″ catheter | Total MP released (mg)/1″ catheter ([1]; treatment 4 hrs (100% PG, 9% MP, 2% PP), time 1 hour): 0.603 mg/1″ catheter | Total MP released (mg)/1″ catheter ([1]; treatment 4 hrs (100% PG, 9% MP, 2% PP), time 3 hours): 1.04 mg/1″ catheter | Total MP released (mg)/1″ catheter ([1]; treatment 4 hrs (100% PG, 9% MP, 2% PP), time 7 hours): 1.472 mg/1″ catheter | Total MP released (mg)/1″ catheter ([1]; treatment 4 hrs (100% PG, 9% MP, 2% PP), time 24 hours): 2.223 mg/1″ catheter | Total MP released (mg)/1″ catheter ([1]; treatment 4 hrs (100% PG, 9% MP, 2% PP), time 4 days): 2.774 mg/1″ catheter | Total MP released (mg)/1″ catheter ([1]; treatment 4 hrs (100% PG, 9% MP, 2% PP), time 5 days): 3.01 mg/1″ catheter | Total MP released (mg)/1″ catheter ([1]; treatment 4 hrs (100% PG, 9% MP, 2% PP), time 6 days): 3.146 mg/1″ catheter | Total MP released (mg)/1″ catheter ([1]; treatment 4 hrs (100% PG, 9% MP, 2% PP), time 8 days): 3.324 mg/1″ catheter | Total MP released (mg)/1″ catheter ([1]; treatment 4 hrs (100% PG, 9% MP, 2% PP), time 11 days): 3.449 mg/1″ catheter | Total MP released (mg)/1″ catheter ([1]; treatment 4 hrs (100% PG, 9% MP, 2% PP), time 13 days): 3.536 mg/1″ catheter | Total MP released (mg)/1″ catheter ([1]; treatment 4 hrs (100% PG, 9% MP, 2% PP), time 15 days): 3.597 mg/1″ catheter | Total MP released (mg)/1″ catheter ([1]; treatment 4 hrs (100% PG, 9% MP, 2% PP), time 18 days): 3.646 mg/1″ catheter | Total MP released (mg)/1″ catheter ([1]; treatment 4 hrs (100% PG, 9% MP, 2% PP), time 22 days): 3.676 mg/1″ catheter | Total MP released (mg)/1″ catheter ([1]; treatment 4 hrs (100% PG, 9% MP, 2% PP), time 29 days): 3.701 mg/1″ catheter | Total MP released (mg)/1″ catheter ([1]; treatment 4 hrs (100% PG, 9% MP, 2% PP), time 36 days): 3.722 mg/1″ catheter | Total MP released (mg)/1″ catheter ([1]; treatment 4 hrs (100% PG, 9% MP, 2% PP), time 50 days): 3.74 mg/1″ catheter | Total MP released (mg)/1″ catheter ([1]; treatment 4 hrs (100% PG, 9% MP, 2% PP), time 67 days): 3.749 mg/1″ catheter | Total MP released (mg)/1″ catheter ([1]; treatment 4 hrs (100% PG, 9% MP, 2% PP), time 81 days): 3.755 mg/1″ catheter | Total MP released (mg)/1″ catheter ([1]; treatment 9 hrs (100% PG, 9% MP, 2% PP), time 1 hour): 0.67 mg/1″ catheter | Total MP released (mg)/1″ catheter ([1]; treatment 9 hrs (100% PG, 9% MP, 2% PP), time 3 hours): 1.18 mg/1″ catheter | Total MP released (mg)/1″ catheter ([1]; treatment 9 hrs (100% PG, 9% MP, 2% PP), time 7 hours): 1.504 mg/1″ catheter | Total MP released (mg)/1″ catheter ([1]; treatment 9 hrs (100% PG, 9% MP, 2% PP), time 24 hours): 1.993 mg/1″ catheter | Total MP released (mg)/1″ catheter ([1]; treatment 9 hrs (100% PG, 9% MP, 2% PP), time 4 days): 2.725 mg/1″ catheter | Total MP released (mg)/1″ catheter ([1]; treatment 9 hrs (100% PG, 9% MP, 2% PP), time 5 days): 3.082 mg/1″ catheter | Total MP released (mg)/1″ catheter ([1]; treatment 9 hrs (100% PG, 9% MP, 2% PP), time 6 days): 3.27 mg/1″ catheter | Total MP released (mg)/1″ catheter ([1]; treatment 9 hrs (100% PG, 9% MP, 2% PP), time 8 days): 3.456 mg/1″ catheter | Total MP released (mg)/1″ catheter ([1]; treatment 9 hrs (100% PG, 9% MP, 2% PP), time 11 days): 3.593 mg/1″ catheter | Total MP released (mg)/1″ catheter ([1]; treatment 9 hrs (100% PG, 9% MP, 2% PP), time 13 days): 3.676 mg/1″ catheter | Total MP released (mg)/1″ catheter ([1]; treatment 9 hrs (100% PG, 9% MP, 2% PP), time 15 days): 3.734 mg/1″ catheter | Total MP released (mg)/1″ catheter ([1]; treatment 9 hrs (100% PG, 9% MP, 2% PP), time 18 days): 3.788 mg/1″ catheter | Total MP released (mg)/1″ catheter ([1]; treatment 9 hrs (100% PG, 9% MP, 2% PP), time 22 days): 3.832 mg/1″ catheter | Total MP released (mg)/1″ catheter ([1]; treatment 9 hrs (100% PG, 9% MP, 2% PP), time 29 days): 3.872 mg/1″ catheter | Total MP released (mg)/1″ catheter ([1]; treatment 9 hrs (100% PG, 9% MP, 2% PP), time 36 days): 3.912 mg/1″ catheter | Total MP released (mg)/1″ catheter ([1]; treatment 9 hrs (100% PG, 9% MP, 2% PP), time 50 days): 3.944 mg/1″ catheter | Total MP released (mg)/1″ catheter ([1]; treatment 9 hrs (100% PG, 9% MP, 2% PP), time 67 days): 3.958 mg/1″ catheter | Total MP released (mg)/1″ catheter ([1]; treatment 9 hrs (100% PG, 9% MP, 2% PP), time 81 days): 3.967 mg/1″ catheter | time until perfused through the membrane and detected in the lower chamber ([2]; 0.60 mm polycarbonate membrane, 37° C.): within two hours | ratio MP/PP from this sample ([2]; lower chamber sample): 4.7 | MP Conc [2, 3]: 0.047 mg/mL | Total mg MP in 10.5 mL lower chamber [2, 3]: 0.4935 mg
SMILES: COC(=O)c1ccc(O)cc1 [MP, methyl paraben]
